Publication PMC3497310, “Binding of the Phage Display Derived Peptide CaIX-P1 on Human Colorectal Carcinoma Cells Correlates with the Expression of Carbonic Anhydrase IX” (International Journal of Molecular Sciences, 2012)
Where no end group is shown, it is not given here.

How the values were obtained:
[1] = serum stability; rapid degradation by serum proteases; cited from earlier work
HCT116 cells [2] = format: binding, human; details: 48 h
Experimental: (§1) 300,000 and 2,000,000 human colorectal carcinoma HCT116 and pancreatic carcinoma BxPC3 cells were cultivated in 6-well plates for 48 h. RPMI 1640 medium with 1% BSA was used for cell blocking. Thereafter, 1 mL RPMI 1640 medium containing about 1.0 × 10^6 cpm ^125I-labeled peptide (specific activity ~50 GBq/μmol) was added and cell incubation was carried out for various time periods (10-120 min). To characterize the specificity of radioligand binding, co-incubation with unlabeled CaIX-P1 at various concentrations (10^-4 to 10^-9 mol/L) was performed. After incubation the cells were washed with ice cold PBS and lysed with 0.5 mL NaOH 0.3 mol/L. The lysate was collected and the radioactivity was measured with a γ-counter ([…]; Berthold Technologies). Bound radioactivity, representing the amount of peptide accumulation on HCT116 cells, was calculated as percentage applied dose per 10^6 cells. Binding specificity was further determined using octreotide, HBP-1 and VA131 as negative control competitors at the same concentration as CaIX-P1. All binding and competition experiments were performed in serum free medium in order to avoid peptide degradation by serum proteases.

HCT116 cells [3] = assay: Fluorescence microscopy of cell labeling; format: cell-based, human; details: HCT116 cells grown to high density; 1 h at 37 °C; medium without FCS; 100 μL of 10^-4-10^-5 M stock in 1 mL; after fixation
Experimental: Human colorectal carcinoma HCT116 cells were seeded in culture plates (1,000,000–2,000,000 cells/well in 3 mL medium) containing glass coverslips and were allowed to grow for 48 h. The medium was replaced by 900 μL fresh medium (without FCS) and 100 μL 10^−4–10^−5 M sterilized stock solution of FITC-labeled-CaIX-P1 or fluorescein at the same concentration was added to the cells. The plates were incubated for 1 h at 37 °C. After incubation the cells were washed thrice with 1 mL ice cold PBS (pH 7.4). Subsequently the cells were fixed with 2% formaldehyde in PBS (pH 7.4) at […] for 20 min. This procedure was performed on ice. The cells were washed with ice cold PBS (1 × 600 μL, pH 7.4) and the cover slips were mounted on a slice with DAKO fluorescent medium. Cells were photographed using a Leica DM-RA2 fluorescence microscope. Digitalized figures were processed using standard imaging software (Adobe Photoshop 6.0/Illustrator 9.0).

HCT116 cells [4] = assay: In vitro binding kinetics of 125I-CaIX-P1 at two cell densities; set-up: species or system human; details: 300,000 vs 2,000,000 cells cultivated 48 h; incubation 10-120 min; serum free medium; uptake as percent applied dose per 10^6 cells; p < 0.05
Experimental: as §1

BxPC3 cells = assay: In vitro binding kinetics of 125I-CaIX-P1 at two cell densities (negative control cells); set-up: species or system human; details: 300,000 vs 2,000,000 cells cultivated 48 h, incubation 10-120 min, serum free medium
Experimental: as §1

YNTNHVPLSPKY [CaIX-P1]
half-life in serum [1]: about 25 min
IC50 (HCT116 cells [2]): 1000 to 5000 nM

O=C1OC2(c3ccc(O)cc3Oc3cc(O)ccc32)c2ccccc21 [fluorescein]
fluorescence signal of cells (HCT116 cells [3]): strongly decreased signal to the background level

YNTNHVPLSPKY [^125I-CaIX-P1, CaIX-P1 radiolabeled with 125I using the chloramine T method]
binding of 125I-CaIX-P1 per 10^6 HCT116 cells with increasing cell density (HCT116 cells [4]): significantly increased binding
binding of 125I-CaIX-P1 on BxPC3 cells at different cell densities (BxPC3 cells): strongly decreased binding to the background level
